Tests used:
[1] = system: S. aureus ATCC 25923; assay: Time-kill curves; format: cell-based, Staphylococcus aureus
Experimental: FIG. 2 presents the time-kill curve of compound 3f (tested at MIC×4, 8 or 16) obtained with S. aureus ATCC 25923.
The method described by Motyl et al. [M. Motyl, K. Dorso, J. Barrett, R. Giacobbe, Basic Microbiological Techniques Used in Antibacterial Drug Discovery. Current Protocols in Pharmacology. UNIT 13A.3. January, 2006] was used.
Killing curves corresponded to the measure of the kinetic of bactericidal activity of indolic compounds over time (time-kill curves) or after 18 h incubation of cultures according to different drug concentrations (concentration-killing curves). Sterile tubes were inoculated with: 1/sterile Mueller Hinton broth, to serve as negative control; 2/a drug-free bacterial inoculum, to serve as a growth control; 3/a bacterial inoculum (10^5 CFU/mL of final concentration) with various concentrations of the tested indolic compound. The tubes were incubated at 37° C. with agitation (50 rpm). Bacterial inocula are determined in each tube using the CFU count method at the beginning of the experiments, and then after 18 h for concentration-killing curves, or after 1 h, 2 h, 4 h, 8 h and 18 h for time-kill curves. A significant bactericidal effect corresponds to reduction of the initial bacterial load of 3 logs or more at any time of incubation.

[2] = system: Staphylococcus aureus K2378 (overexpresses the efflux pump NorA from a multicopy plasmid); assay: Efflux pump inhibition assay with sub-inhibitory ciprofloxacin; format: cell-based; conditions: S. aureus K2378; in the presence of ciprofloxacin 0.5 mg/L
Experimental: The efflux pump inhibition potential of the bis-indolic derivatives was tested using two steps.
The following experimental protocol was used: indolic derivatives (initially solubilised in DMSO at 10 mg/mL) were dispensed in a 96-wells microplate by two fold serial dilutions in Muller-Hinton medium (MH, Bio Rad) using a Biomek 2000 (Beckman) handling robot. 100 μL of the bacterial inoculum (an overnight culture at 37° C. in 5 mL MH diluted 100-fold) was then added in each well. The total volume was 200 μL in each well and the final bacteria concentration 10^6 CFU/mL (CFU: colony forming unit). The highest final indolic derivative concentration was 128 mg/L. Growth was assayed with a microplate reader by monitoring absorption at 620 nm after 1, 2, 5, 7 and 24 h incubation at 37° C. In addition, the plates were read visually after 24 hours incubation. Cultures containing 5 μL DMSO were used as growth controls. In addition, two controls containing a sub-inhibitory or a inhibitory antibiotic concentration for the tested strain were performed. The antibiotics used were ampicillin (0.5 and 32 μg/mL) for E. coli, kanamycin (0.5 and 16 μg/mL) for S. aureus ATCC 25923, ciprofloxacin (4 and 64 mg/L) for S. aureus 1199B, ciprofloxacin (0.5 and 2 mg/L) for S. aureus K2378. All experiments were performed in duplicate.
Efflux pump inhibition assays were then performed against resistant Staphylococcus aureus strains SA 1199B and SA K2378 for bis-indolic derivatives. […] The minimal inhibitory concentration (MIC) of the bis-indolic compound allowing a complete inhibition of the bacterial growth in the presence of ciprofloxacin was determined.

CC(C)(C)OC(=O)NCC(NC(=O)c1c[nH]c2ccc(Br)cc12)c1c[nH]c2ccc(Br)cc12 (stereo not drawn) [Compound 3f, tert-Butyl(2-(5-bromo-1H-indol-3-yl)-2-(5-bromo-1H-indolyl-3-carboxamido)ethyl)carbamate]
bacterial regrowth (time-kill curve) ([1]; 4×MIC, incubation prolonged to 18 h): progressive bacterial regrowth
bactericidal activity (time-kill curve) ([1]; after 8 h incubation, 4×, 8× and 16× the MIC): significant bactericidal activity

Cn1cc(C(=O)NC(CNC(=O)OC(C)(C)C)c2c[nH]c3ccc(Br)cc23)c2cc(Br)ccc21 (stereo not drawn) [Compound 7, tert-Butyl (2-(5-bromo-1-methyl-1H-indole-3-carboxamido)-2-(5-bromo-1H-indol-3-yl)ethyl) carbamate]
MIC, mg/L (Ciprofloxacin concentration, mg/L) [2]: 0.125 (0.5) mg/L

From patent publication US9676715B2, “Bis-indolic derivatives, a process for preparing the same and their uses as a drug” (UNIVERSITE JOSEPH FOURIER, priority 2011, dated 2017)
